4 compounds from patent US20250262167A1, “COMPOUNDS, TARGETS AND PATHWAYS FOR MACROPHAGE MODULATION” (Massachusetts Institute of Technology, priority 2020, published 2025) can be followed below.

Structures can show the parent of a compound that is named as a salt.

For experiment [1], the system named is M1-like and M2-like differentiated hMDMs. In words: RNA-seq of differentiated macrophages reprogrammed by compounds. The format is cell-based, human. Conditions: compound at EC, 24 hours. The protocol: FIGS. 4A-4F show reprogramming of differentiated macrophages by selected compounds. […] Controls include two differentiated M1 and M2 macrophages, M2 macrophages treated with IFNγ and M1 macrophages treated with IL-4. Gene expression in each sample was measured by RNA-seq separately. […] FIG. 4D show network of GO enriched terms using BiNGO on top 10% central hubs genes (n=1255) of macrophage activation network. Node color and size represent the FDR values of enriched GO terms. […] Shared (FIG. 4E) and unique pathways (FIG. 4F) are shown. Compound targets and FDA-approval information are indicated. […]
Differentially expressed genes were annotated using online functional enrichment analysis tool DAVID (http://david.ncifcrf.gov/). […] To quantify the levels of RNA transcripts, total RNA was extracted from various cells and reverse transcribed by TaqMan® Reverse Transcription Reagents Kit (ABI Catalog No. N8080234), followed by amplification with Sybr Green Master Mix (Roche Catalog No. 04707516001) with specific primers (Table 4) and detected by Roche LightCycler 480. […]
To determine the central hubs of all stimulation conditions by compounds (refer to FIG. 4) reflecting the core macrophage activation network, transcriptional interactions between genes were first determined by ARACNe based on the perturbed transcriptional profiles of 34 compounds as well as IFNγ and IL4 controls. […]

In experiment [2] the test system is hMDMs differentiated into M1 by IFNγ plus TNFα. In words: Reprogramming screen and dosage response on M1-like differentiated macrophages. As to conditions: Homo sapiens, Macrophage, 24 h; M2-activating compounds on M1-like macrophages (IFNγ plus TNFα); EC = concentration reaching Z-score cutoff. The format is cell-based, human.
Experimental: Data were summarized from 3 independent experiments.
Human macrophages were seeded into optical 384-well plates. Sixteen hours later, medium in M1 plates were replaced by M1 differentiating medium (complete RPMI with 50 ng/mL IFNγ and 50 ng/mL TNFα) and medium in M2 plates by M2 differentiating medium (complete RPMI with 5 ng/mL IL-4 and 5 ng/mL IL-13). After 24 hrs cell differentiation, M1 plates (M1 macrophages) and M2 plates (M2 macrophages) were treated with M2-activating compounds and M1-activating compounds respectively for 24 hrs. Two independent experiments were performed with or without replacing differentiating medium right before treatment. Cell imaging and analysis were performed as indicated above.
To investigate whether the identified compounds could reprogram or reactivate macrophages after M1- or M2-like differentiation, we rescreened the hits on M1- or M2-activated macrophages. hMDMs were activated into M2-like macrophages by IL-4 plus IL-13 or M1-like macrophages by IFNγ plus TNFα. […] 24 hours later, cell images were taken and cell shapes were quantified.
We also rescreened the hits on differentiated macrophages in the presence of differentiating cytokines: either IL-4 plus IL-13 or IFNγ plus TNFα.
The test system of the next experiment is PKM2. Briefly: PKM enzymatic activity (colorimetric kit) in treated ImKCs. Conditions: ERK1/2 phosphorylation inhibited. The format is cell-based, mouse. Here is the method: Data are presented as the mean±sd (n=4). […] Data are presented as the mean±sd (n=6).
FIGS. 29A-29B show comparison of DPI's effect on glycolysis in wild-type and Pkm^−/− BMDMs. […] FIGS. 29C-29D show activation of PKM2 and GAPDH enzymatic activity by DPI is inhibited by ERK1/2 inhibitor. ImKCs were treated with DMSO or DPI alone (500 nM) or DPI plus ERK1/2 inhibitor (SCH772984, […]) for 6 hrs and the enzymatic activities of PKM2 (c) and GAPDH (d) were measured by colorimetric assay kits (Biovision). Data are presented as the mean±sd (n=6).
The enzymatic activities of PKM and GAPDH were measured using the pyruvate kinase activity assay kit (Biovision, #K709) and GAPDH activity assay kit (Biovision, #K680) according to the manufacturer's protocols, respectively.

Experiment [3] concerns bone marrow derived macrophages (BMDMs). Briefly: Seahorse ECAR (glycolysis) in BMDMs. The format is cell-based, mouse. As to conditions: macrophages, NOX inhibition. The protocol:
FIGS. 21A-21I show DPI stimulates glycolysis through GPR3 and β-arrestin2. FIGS. 21A-21B show DPI-stimulated glycolysis is independent of the NOX activity. […] The mean fluorescence intensity (MFI) of 2-NBDG in cells was measured by flow cytometry and normalized to DMSO controls of wildtype BMDMs. Data are presented as the mean±sd (n=3). […] ImKCs were transfected with siRNA specific for Gpr3 or a scramble siRNA as control. […] Data are presented as the mean±sd (n=4). […] Data are presented as the mean±sd (n=12). […] Abbr2^−/− ImKC were constructed by CRISPR-Cas9-mediated gene editing. […] Data are presented as the mean±sd (n=4). […]
Specific parameters for glycolytic capacity and glycolytic reserve were calculated and summarized based on two independent experiments. […]
FIGS. 29A-29B show comparison of DPI's effect on glycolysis in wild-type and Pkm^−/− BMDMs. […] ImKCs were treated with DMSO or DPI alone (500 nM) or DPI plus ERK1/2 inhibitor (SCH772984, […]) for 6 hrs and the enzymatic activities of PKM2 (c) and GAPDH (d) were measured by colorimetric assay kits (Biovision). […]
OCR and ECAR were measured in isolated tissues or cultured ImKCs using the Seahorse XFe Extracellular Flux Analyzer (Agilent). […] Glucose levels were determined using a glucose (GO) assay kit (Sigma). […] Lactate levels were determined using a lactate assay kit (Eton Bioscience). […]

The next experiment relates to M0 macrophages (hMDMs). In words: Dosage response of cell shape change on M0 macrophages. It is filed as cell-based, human. Conditions: M0 macrophages.
The test system of experiment [4] is hMDMs differentiated into M2 by IL-4 plus IL-13. In words: Reprogramming screen and dosage response on M2-like differentiated macrophages.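 Also: human monocyte-derived macrophages held 24 h in 5 ng/mL IL-4 plus IL-13 before 24 h compound exposure, with cell shape measured from images in 384-well plates.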
In the next experiment the test system is hMDMs. Briefly: Flow cytometry of M1 markers (CD80, CD86) and M2 markers (CD206, CD163) in hMDMs. It is filed as cell-based, human. As to conditions: 24 hrs. Here is the method:
FIGS. 7A-7B show morphology and phenotypes of activated macrophages. […] The resulting macrophages were polarized to M1 by IFNγ or M2 by IL4. Then, M1 macrophages were treated with M2-type compound bosutinib ([…]) for 24 hrs, and M2 macrophages were treated with M1-type compound thiostrepton ([…]) for 24 hrs. F-actin was stained and images were acquired by fluorescent microscopy with 60× objective. Cell nuclei are stained with DAPI. Representative data were shown from two independent experiments. […] Shown are the representative staining profiles from three independent experiments. The numbers show mean fluorescent intensity (MFI)+/−standard error of the mean (SEM) for n=3 samples per group.
FIGS. 9A-9C show comparison of the differentially expressed genes induced by selected compounds (FIG. 9A), ligands for novel pathways (FIG. 9B), and controls (IL-4 and IFNγ). […] Shown are the changes of the relative mean fluorescence intensity (MFI) to controls. 0.2 refers to 20% MFI increase.
B6 mice were purchased from the Jackson Laboratory and maintained in the animal facility at the Massachusetts Institute of Technology (MIT). NSG mice were purchased from the Jackson Laboratory and maintained under specific pathogen-free conditions in the animal facilities at MIT. […] The data were analyzed by FlowJo. […]

For experiment [5], the system named is human monocyte-derived macrophages (hMDMs). In words: High throughput phenotypic screen of macrophage activation (cell shape, Z-score).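 Also: phalloidin and DAPI stained hMDMs imaged by high-content microscopy, cell eccentricity compared with DMSO control by T-test, round morphology scored negative, elongated positive.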 It is filed as cell-based. As to conditions: known M1-/M2-activating stimuli.
Experimental: The Z-score was calculated by T-test to measure the difference of cell morphology between treatment and control. Stimuli had negative Z-scores when induced cells to round morphology and positive scores when induced cells to elongated morphology. […] Equally mixed human monocytes isolated from fresh blood of 4 healthy donors were cultured in vitro with 50 ng/mL M-CSF for 7 days. hMDMs were trypsinized and plated on 384-well plates (5000 cells/well in 50 μL). Cells were recovered in 10 ng/mL M-CSF for 16 hrs and then treated with compounds for 24 hrs. Cells were washed, fixed and stained with Phalloidin and DAPI. The plates were scanned with a high-content microscope with six-fields per well to quantify the cell number and cell morphology. […] The cell eccentricity was calculated to measure the cell morphology. The Z-score was calculated by T-test to measure the difference in cell morphologies between each compound and DMSO control.
Cells were treated with a library of over 4000 individual compounds or drugs at the final concentration of 20 μM using the CyBi-Well simultaneous pipettor (CyBio). […] After 24 hr incubation, supernatants were removed using the microplate washer (Bioteck) and cells were fixed by adding 50 μL 16% paraformaldehyde (Thermo Scientific) with the dispenser for 20 minutes. Cells were then washed with 50 μL 1×PBS twice and incubated for 20 minutes with NucBlue and AF746 Phalloidin (Invitrogen) to stain nucleus and cytoskeleton. Cells were then washed with 50 μL 1×PBS twice and maintained in PBS for the image acquirement. Plates were read in the Opera Phenix high content screening system (PerkinElmer) to photograph cells using 20× objective in 2 fluorescent channels (Blue and FarRed). A total of 6 different fields in each well and an average of 1,000 cells were imaged per well. CellProfiler was used to identify each cell by overlapping signals from its nucleus and cytoskeleton, and calculate the eccentricity as the parameter to measure the cell morphology. The Z-score was calculated by T-test to measure the difference of cell morphology between each treatment and control. For each row of the 384-well plate, total 4 wells with first and last two columns treated with the same concentration of DMSO were combined as the control for the other 20 treatment wells in that row. In the meantime, classic M1 and M2 stimuli were added to generate the gold-standard Z-score cutoffs with M1 or M2 activation. Classic M1 stimuli include LPS (100 ng/mL), IFNγ (50 ng/mL, Peprotech), TNFα (50 ng/mL, Peprotech), or IFNγ plus TNFα. Classic M2 stimuli include IL-10 (10 ng/mL, Peprotech), IL-4 (10 ng/mL, Peprotech), or IL-13 (5 ng/mL, Peprotech).

Take `C(=N\NC1=NCCN1)/c1c2ccccc2c(/C=N/NC2=NCCN2)c2ccccc12` [Bisantrene dihydrochloride]: the unique pathway perturbed result in experiment [1] is listed as “perturbed the pathway of DNA topological change”. For the same compound, the EC (M2 Z-score cutoff) in experiment [2] turned out to be 1.98 µM.
Consider `COc1cc(C(C)=O)ccc1O` [apocynin], for which the “DPI's effect on PKM2 enzymatic activity” value in the experiment with PKM2 is on record as “abolished”. For the same compound, the “basal level of glycolytic activity” value in experiment [3] is “significantly reduced”.
`Nc1ccccc1NC(=O)c1ccc(CNC(=O)OCc2cccnc2)cc1` [MS275]: the Category result (in the experiment on M0 macrophages (hMDMs); in experiment [4] (differentiated macrophages)) was “M1 (−4 for M1-activated macrophages)” throughout. For the same compound, the EC was 1.05 µM in the experiment on M0 macrophages (hMDMs) (EC = concentration inducing cell morphology changes to reach the M1 or M2 Z-score cutoff, Michaelis-Menten fit, 3 independent experiments, unit of the source corrected) and 0.811 µM in experiment [4] (M1-activating compounds on M2-like macrophages (IL-4 plus IL-13), EC = concentration reaching Z-score cutoff). Moreover, in the experiment on M0 macrophages (hMDMs) (Max Z-score from Michaelis-Menten equation, negative = round, positive = elongated), the “Max absolute Z-value” was −7.993. Besides, the unique pathway perturbed entry in experiment [1] is “perturbed the pathway of chromatin assembly”.
For IFNγ: classic M1 stimulus, in the experiment with hMDMs, the “expression of M1 markers CD80 and CD86” value is on record as “up-regulated”; the “expression of M2 markers CD206 and CD163” value was “suppressed”. For the same compound, the cell shape induced result in experiment [5] was “round shape”.
